Experimental data from patent publication US20240327412A1, “FACTOR XIIA INHIBITORS” (KALVISTA PHARMACEUTICALS LIMITED, priority 2021, published 2024).

What was measured:
Assay type in all cases: biochemical
KLK1 = KLK1 (Homo sapiens, UniProt P06870); experiment: Related protease inhibition: KLK1 (fluorogenic substrate at Km); conditions: class symbols per Table 18
How it was run: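 Enzymatic activity was followed as release of fluorescence from a fluorogenic substrate over 5 min at 25° C, with test compound at various concentrations. The linear rate per minute was converted to % activity, and IC50 was taken as the concentration giving 50% inhibition of uninhibited enzyme activity.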

Human Factor XIIa = biological target: T1, Human Factor XIIa (Homo sapiens, UniProt P00748); experiment: Determination of FXIIa inhibition (fluorogenic substrate H-DPro-Phe-Arg-AFC, IC50 assay); conditions: substrate at Km concentration, 25° C.; category scale; read-out: Human FXII IC50 (nm)
T1 construct: Proteolytic cleavage of FXII to heavy and light chains of FXIIa dramatically increases catalytic activity; purchased Enzyme Research Laboratories
T1 sequence (P00748 373-615 limits assumed): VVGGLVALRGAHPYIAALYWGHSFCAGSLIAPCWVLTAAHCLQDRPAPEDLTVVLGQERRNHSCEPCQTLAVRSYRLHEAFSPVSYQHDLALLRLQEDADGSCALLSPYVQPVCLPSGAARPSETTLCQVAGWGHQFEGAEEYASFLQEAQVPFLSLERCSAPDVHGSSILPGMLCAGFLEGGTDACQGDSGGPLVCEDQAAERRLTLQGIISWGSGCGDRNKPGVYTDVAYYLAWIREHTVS
T1 sequence (P00748 20-372 partner limits assumed): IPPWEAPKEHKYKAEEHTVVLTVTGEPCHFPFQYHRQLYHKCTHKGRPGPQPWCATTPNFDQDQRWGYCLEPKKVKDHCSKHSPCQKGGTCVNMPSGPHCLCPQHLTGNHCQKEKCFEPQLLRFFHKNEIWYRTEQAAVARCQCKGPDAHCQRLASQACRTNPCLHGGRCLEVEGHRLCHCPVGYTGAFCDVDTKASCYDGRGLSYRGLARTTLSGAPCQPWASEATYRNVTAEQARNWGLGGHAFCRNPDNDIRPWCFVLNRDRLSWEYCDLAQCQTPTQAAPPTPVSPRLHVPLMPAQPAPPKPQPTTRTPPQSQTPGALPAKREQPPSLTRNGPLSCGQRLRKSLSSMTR
How it was run: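 At substrate Km and 25° C., the rate of AFC release from H-DPro-Phe-Arg-AFC by human Factor XIIa was followed for 5 min across compound concentrations. Inhibition was derived as percent of uninhibited rate, giving IC50.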

Plasmin = Plasmin (Homo sapiens, UniProt P00747); experiment: Related protease inhibition: Plasmin (fluorogenic substrate at Km); conditions: class symbols per Table 18
Experimental: (§1) In vitro inhibition of related proteases was determined using an IC50 assay based on standard literature methods (see e.g. Shori et al., Biochem. Pharmacol., 1992, 43, 1209; Bouckaert et al., European Journal of Medicinal Chemistry 110 (2016) 181). Human serine protease enzyme Plasma Kallikrein, KLK1, FXa, Plasmin, Thrombin and Trypsin were assayed for enzymatic activity using an appropriate fluorogenic substrate at Km concentration, FXIa at fixed substrate concentration of 100 μM and various concentrations of the test compound. Protease activity was measured by monitoring the accumulation of liberated fluorescence from the substrate over 5 min at 25° C. The linear rate of fluorescence increase per minute was expressed as percentage (%) activity. IC50 values were calculated as the concentration of inhibitor giving 50% inhibition of the uninhibited enzyme activity (100%).

Plasma Kallikrein = biological target: T2, Plasma Kallikrein (Homo sapiens, UniProt P03952); experiment: Related protease inhibition: Plasma Kallikrein (fluorogenic substrate at Km); conditions: class symbols per Table 18, read-out: IC50 (human PKal)
T2 construct: FXIIa converts plasma prekallikrein (PK) to plasma kallikrein (PKa)
How it was run: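 Fluorogenic substrate at Km for thrombin, trypsin and plasma kallikrein; FXIa run at fixed 100 μM substrate. Varied inhibitor concentrations, fluorescence accumulation read over 5 min, 25° C. IC50 = concentration giving 50% inhibition versus uninhibited (100%) activity.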

Trypsin = Trypsin (Homo sapiens, UniProt P07477); experiment: Related protease inhibition: Trypsin (fluorogenic substrate at Km); conditions: class symbols per Table 18
Experimental: as §1

Thrombin = Thrombin (Homo sapiens, UniProt P00734); experiment: Related protease inhibition: Thrombin (fluorogenic substrate at Km); conditions: class symbols per Table 18
Experimental: as §1

FXa = FXa (Homo sapiens, UniProt P00742); experiment: Related protease inhibition: FXa (fluorogenic substrate at Km); conditions: class symbols per Table 18
Experimental: as §1

FXa, sequence (P00742 235-488 limits assumed): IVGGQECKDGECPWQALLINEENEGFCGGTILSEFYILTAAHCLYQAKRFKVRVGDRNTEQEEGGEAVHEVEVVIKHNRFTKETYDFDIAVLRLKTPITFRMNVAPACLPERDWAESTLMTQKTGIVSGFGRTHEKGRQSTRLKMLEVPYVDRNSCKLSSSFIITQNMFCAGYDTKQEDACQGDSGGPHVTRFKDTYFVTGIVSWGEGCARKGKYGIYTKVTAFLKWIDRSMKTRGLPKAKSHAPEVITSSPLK
FXa, sequence (P00742 41-179 partner limits assumed): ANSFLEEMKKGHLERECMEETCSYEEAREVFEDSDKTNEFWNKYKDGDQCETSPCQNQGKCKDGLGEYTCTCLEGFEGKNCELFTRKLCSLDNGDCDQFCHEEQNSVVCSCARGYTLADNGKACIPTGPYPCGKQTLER
T2 sequence (P03952 391-638 limits assumed): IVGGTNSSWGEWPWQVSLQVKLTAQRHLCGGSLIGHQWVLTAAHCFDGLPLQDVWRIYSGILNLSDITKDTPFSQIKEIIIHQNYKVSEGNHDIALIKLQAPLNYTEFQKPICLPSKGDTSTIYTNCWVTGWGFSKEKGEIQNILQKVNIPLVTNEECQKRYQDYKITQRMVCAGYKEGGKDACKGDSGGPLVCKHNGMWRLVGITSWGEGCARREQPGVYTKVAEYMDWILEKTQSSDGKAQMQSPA
T2 sequence (P03952 20-390 partner limits assumed): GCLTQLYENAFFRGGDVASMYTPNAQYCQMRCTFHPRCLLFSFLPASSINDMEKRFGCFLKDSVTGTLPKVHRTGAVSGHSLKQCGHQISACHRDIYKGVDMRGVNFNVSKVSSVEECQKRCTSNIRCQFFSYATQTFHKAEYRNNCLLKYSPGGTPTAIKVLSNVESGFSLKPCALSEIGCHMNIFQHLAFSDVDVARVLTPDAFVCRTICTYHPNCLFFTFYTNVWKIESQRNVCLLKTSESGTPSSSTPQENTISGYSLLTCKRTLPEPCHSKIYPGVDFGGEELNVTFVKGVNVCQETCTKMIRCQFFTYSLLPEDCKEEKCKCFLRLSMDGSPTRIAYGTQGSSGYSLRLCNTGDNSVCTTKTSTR
KLK1, sequence (P06870 25-262): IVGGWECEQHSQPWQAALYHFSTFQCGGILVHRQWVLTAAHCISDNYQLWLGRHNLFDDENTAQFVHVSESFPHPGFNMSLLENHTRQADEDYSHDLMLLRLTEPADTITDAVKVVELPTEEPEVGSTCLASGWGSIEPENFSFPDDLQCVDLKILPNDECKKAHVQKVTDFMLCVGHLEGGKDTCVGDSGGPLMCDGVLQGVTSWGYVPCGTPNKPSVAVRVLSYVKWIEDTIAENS
Plasmin, sequence (P00747 581-810 limits assumed): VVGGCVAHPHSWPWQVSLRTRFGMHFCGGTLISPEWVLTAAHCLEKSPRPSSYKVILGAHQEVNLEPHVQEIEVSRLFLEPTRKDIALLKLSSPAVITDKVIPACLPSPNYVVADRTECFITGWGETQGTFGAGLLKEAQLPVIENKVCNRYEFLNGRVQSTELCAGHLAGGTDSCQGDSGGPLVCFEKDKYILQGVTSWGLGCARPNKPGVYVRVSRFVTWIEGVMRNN
Plasmin, sequence (P00747 97-580 partner limits assumed): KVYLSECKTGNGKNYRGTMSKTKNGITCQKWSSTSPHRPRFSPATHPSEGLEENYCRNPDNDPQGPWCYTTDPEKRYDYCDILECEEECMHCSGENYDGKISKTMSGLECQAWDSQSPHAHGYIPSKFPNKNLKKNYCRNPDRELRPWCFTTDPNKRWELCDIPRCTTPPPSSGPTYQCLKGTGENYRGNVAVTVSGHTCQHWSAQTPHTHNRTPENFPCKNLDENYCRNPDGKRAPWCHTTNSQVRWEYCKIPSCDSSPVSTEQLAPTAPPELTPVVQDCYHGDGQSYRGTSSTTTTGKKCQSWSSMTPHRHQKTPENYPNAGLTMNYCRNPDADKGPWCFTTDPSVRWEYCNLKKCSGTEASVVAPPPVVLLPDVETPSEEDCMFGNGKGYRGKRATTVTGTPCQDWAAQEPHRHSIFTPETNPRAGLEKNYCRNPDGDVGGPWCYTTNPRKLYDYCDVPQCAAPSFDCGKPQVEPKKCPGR

| Compound | IC50 (KLK1) [µM] | IC50 (Human Factor XIIa) [µM] | IC50 (Plasmin) [µM] | IC50 (Plasma Kallikrein) [µM] | IC50 (Trypsin) [µM] | IC50 (Thrombin) [µM] | IC50 (FXa) [µM] |
| --- | --- | --- | --- | --- | --- | --- | --- |
| Nc1nccc2c(N3CCC4(CC(COc5ccn6ccnc6c5)C4)C3)cccc12 (single isomer, unassigned) [Example 8806, 5-(trans*-2-((imidazo[1,2-a]pyridin-7-yloxy)methyl)-6-azaspiro[3.4]octan-6-yl)isoquinolin-1-amine] | 10 to 40 | 0.1 to 0.3 | > 40 | > 40 | > 40 | > 40 | > 40 |
| Cn1ccc(OCC23CC(CNc4cccc5c(N)nccc45)(CO2)C3)cc1=O [Example 2205, 4-((4-(((1-aminoisoquinolin-5-yl)amino)methyl)-2-oxabicyclo[2.1.1]hexan-1-yl)methoxy)-1-methylpyridin-2(1H)-one] | 10 to 40 | 0.3 to 1 | > 40 | > 40 | > 40 | > 40 | > 40 |
| Nc1nccc2c(NCC34CC(COc5ccc6nccn6c5)(CCO3)C4)cccc12 [Example 10904, N5-((5-((imidazo[1,2-a]pyridin-6-yloxy)methyl)-2-oxabicyclo[3.1.1]heptan-1-yl)methyl)isoquinoline-1,5-diamine] | 3 to 10 | 0.01 to 0.1 |  | > 40 |  | 10 to 40 | > 40 |
| Cc1cc2c(NCC34CC(COc5ccn6ccnc6c5)(CCO3)C4)ccnc2[nH]1 [Example 10907, N-[[5-(Imidazo[1,2-a]pyridin-7-yloxymethyl)-2-oxabicyclo[3.1.1]heptan-1-yl]methyl]-2-methyl-1H-pyrrolo[2,3-b]pyridin-4-amine] | > 40 | 1 to 3 |  | > 40 |  | > 40 | > 40 |
| Nc1nccc2c(NCC34CC(COc5ccn6cnnc6c5)(CCO3)C4)cccc12 [Example 10926, 5-N-[[5-([1,2,4]Triazolo[4,3-a]pyridin-7-yloxymethyl)-2-oxabicyclo[3.1.1]heptan-1-yl]methyl]isoquinoline-1,5-diamine] | 3 to 10 | 0.01 to 0.1 | > 40 | > 40 | 3 to 10 | > 40 | > 40 |
| Cc1cc(OCC23CCOC(CNc4cccc5c(N)nccc45)(C2)C3)cc(=O)n1C [Example 10928, 4-((1-(((1-Aminoisoquinolin-5-yl)amino)methyl)-2-oxabicyclo[3.1.1]heptan-5-yl)methoxy)-1,6-dimethylpyridin-2(1H)-one] | 10 to 40 | 0.01 to 0.1 | > 40 | > 40 | 10 to 40 | > 40 | 10 to 40 |
| Cn1ccc(OCC23CCOC(CNc4cccc5c(N)nccc45)(C2)C3)nc1=O [Example 10940, 4-((1-(((1-aminoisoquinolin-5-yl)amino)methyl)-2-oxabicyclo[3.1.1]heptan-5-yl)methoxy)-1-methylpyrimidin-2(1H)-one] | 10 to 40 | 0.1 to 0.3 | > 40 | > 40 | 10 to 40 | > 40 | > 40 |
| Cn1ccc(OCC23CC(CNc4cccc5c(N)nccc45)(CCO2)C3)cc1=O [Example 11001, 4-((5-(((1-aminoisoquinolin-5-yl)amino)methyl)-2-oxabicyclo[3.1.1]heptan-1-yl)methoxy)-1-methylpyridin-2(1H)-one] | 10 to 40 | 0.1 to 0.3 | > 40 | > 40 | 10 to 40 | > 40 | > 40 |
| Cn1ccc(OCC23CN(C(=O)NCc4ccccc4)C(CNc4cccc5c(N)nccc45)(C2)C3)cc1=O [Example 12017, 1-(((1-aminoisoquinolin-5-yl)amino)methyl)-N-benzyl-4-(((1-methyl-2-oxo-1,2-dihydropyridin-4-yl)oxy)methyl)-2-azabicyclo[2.1.1]hexane-2-carboxamide] | 3 to 10 |  | 10 to 40 | 10 to 40 | > 40 | > 40 | 10 to 40 |

More lines, now with the values ahead:

| IC50 (KLK1) [µM] | IC50 (Human Factor XIIa) [µM] | IC50 (Plasmin) [µM] | IC50 (Plasma Kallikrein) [µM] | IC50 (Trypsin) [µM] | IC50 (Thrombin) [µM] | IC50 (FXa) [µM] | Compound |
| --- | --- | --- | --- | --- | --- | --- | --- |
| 1 to 3 | 0.01 to 0.1 | > 40 | 10 to 40 | 10 to 40 | > 40 | 10 to 40 | Cc1cnc2ccc(OCC34CC(CNc5cccc6c(N)nccc56)(CO3)C4)cn12 [Example 2212, N5-((1-(((3-methylimidazo[1,2-a]pyridin-6-yl)oxy)methyl)-2-oxabicyclo[2.1.1]hexan-4-yl)methyl)isoquinoline-1,5-diamine] |
| 3 to 10 | 0.01 to 0.1 | > 40 | > 40 | 10 to 40 | > 40 | 10 to 40 | Nc1nccc2c(NCC34CC(COc5ccc6c(c5)CNC6=O)(CO3)C4)cccc12 [Example 6618, 5-[[1-[[(1-Aminoisoquinolin-5-yl)amino]methyl]-2-oxabicyclo[2.1.1]hexan-4-yl]methoxy]-2,3-dihydroisoindol-1-one] |
| 3 to 10 | 0.3 to 1 | > 40 | > 40 | 3 to 10 | > 40 | > 40 | Nc1nccc2c(NCC34CC(COc5ccc6nnc(C(F)F)n6c5)(CO3)C4)cccc12 [Example 6620, N5-((4-(((3-(difluoromethyl)-[1,2,4]triazolo[4,3-a]pyridin-6-yl)oxy)methyl)-2-oxabicyclo[2.1.1]hexan-1-yl)methyl)isoquinoline-1,5-diamine] |
| 3 to 10 | 0.1 to 0.3 | > 40 | > 40 | > 40 | > 40 | > 40 | CN1Cc2cc(OCC34COC(CNc5cccc6c(N)nccc56)(C3)C4)ccc2C1=O [Example 6621, 5-((1-(((1-aminoisoquinolin-5-yl)amino)methyl)-2-oxabicyclo[2.1.1]hexan-4-yl)methoxy)-2-methylisoindolin-1-one] |
| 1 to 3 | 0.01 to 0.1 | 10 to 40 | > 40 | 10 to 40 | > 40 | > 40 | Nc1nccc2c(NCC34CC(COc5ccn6cnnc6c5)(CO3)C4)cccc12 [Example 6629, N5-((4-(([1,2,4]triazolo[4,3-a]pyridin-7-yloxy)methyl)-2-oxabicyclo[2.1.1]hexan-1-yl)methyl)isoquinoline-1,5-diamine] |
| 1 to 3 | 0.01 to 0.1 | > 40 | > 40 | > 40 | > 40 | > 40 | Cn1ccc(OCC23CN(CCCc4ccccc4)C(CNc4cccc5c(N)nccc45)(C2)C3)cc1=O [Example 12019, 4-((1-(((1-Aminoisoquinolin-5-yl)amino)methyl)-2-(3-phenylpropyl)-2-azabicyclo[2.1.1]hexan-4-yl)methoxy)-1-methylpyridin-2(1H)-one] |
| 1 to 3 | 0.001 to 0.01 | 3 to 10 | 10 to 40 | > 40 | > 40 | 10 to 40 | Cn1ccc(OCC23CN(C(=O)Nc4ccccc4)C(CNc4cccc5c(N)nccc45)(C2)C3)cc1=O [Example 12036, 1-(((1-aminoisoquinolin-5-yl)amino)methyl)-4-(((1-methyl-2-oxo-1,2-dihydropyridin-4-yl)oxy)methyl)-N-phenyl-2-azabicyclo[2.1.1]hexane-2-carboxamide] |
